Reference: US20100144779A1, “Marine Alkalod Makaluvamines and Derivatives Thereof” (THE UAB RESEARCH FOUNDATION, priority 2007, published 2010)

Tests used:
Type in all cases: cell-based, human
ACHN = experiment: NCI60 cell line screen (SRB); conditions: Renal Cancer, 48 h
Protocol: (§1) This panel implements the NCI60 cell line screen, including leukemia, non-small cell lung cancer, colon cancer, central nervous system cancer, melanoma, ovarian cancer, renal cancer, prostate cancer and breast cancer. The cell lines tested are specified in Table 3.
(§2) Generally, the human tumor cell lines of the cancer screening panel are grown in RPMI 1640 medium containing 5% fetal bovine serum and 2 mM L-glutamine. For a typical screening experiment, cells are inoculated into 96 well microtiter plates in 100 μL at plating densities ranging from 5,000 to 40,000 cells/well depending on the doubling time of individual cell lines. After cell inoculation, the microtiter plates are incubated at 37° C., 5% CO2, 95% air and 100% relative humidity for 24 h prior to addition of experimental drugs. After 24 h, two plates of each cell line are fixed in situ with TCA, to represent a measurement of the cell population for each cell line at the time of drug addition (Tz). Experimental drugs are solubilized in dimethyl sulfoxide at 400-fold the desired final maximum test concentration and stored frozen prior to use. At the time of drug addition, an aliquot of frozen concentrate is thawed and diluted to twice the desired final maximum test concentration with complete medium containing 50 μg/ml gentamicin. Additional four, 10-fold or ½ log serial dilutions are made to provide a total of five drug concentrations plus control. Aliquots of 100 μl of these different drug dilutions are added to the appropriate microtiter wells already containing 100 μl of medium, resulting in the required final drug concentrations.
(§3) Following drug addition, the plates are incubated for an additional 48 h at 37° C., 5% CO2, 95% air, and 100% relative humidity. For adherent cells, the assay is terminated by the addition of cold TCA. Cells are fixed in situ by the gentle addition of 50 μl of cold 50% (w/v) TCA (final concentration, 10% TCA) and incubated for 60 minutes at 4° C. The supernatant is discarded, and the plates are washed five times with tap water and air dried. Sulforhodamine B (SRB) solution (100 μl) at 0.4% (w/v) in 1% acetic acid is added to each well, and plates are incubated for 10 minutes at room temperature. After staining, unbound dye is removed by washing five times with 1% acetic acid and the plates are air dried. Bound stain is subsequently solubilized with 10 mM trizma base, and the absorbance is read on an automated plate reader at a wavelength of 515 nm. For suspension cells, the methodology is the same except that the assay is terminated by fixing settled cells at the bottom of the wells by gently adding 50 μl of 80% TCA (final concentration, 16% TCA). Using the seven absorbance measurements (time zero, Tz, control growth, (control), and test growth in the presence of drug at the five concentration levels (Ti)), the percentage growth is calculated at each of the drug concentrations levels. Percentage growth inhibition is calculated as:
(§4) [(Ti−Tz)/(C−Tz)]×100 for concentrations for which Ti>/=Tz
(§5) [(Ti−Tz)/Tz]×100 for concentrations for which Ti<Tz.

SK-MEL-28 = experiment: NCI60 cell line screen (SRB); conditions: SK-MEL-28, Melanoma, 48 h
Protocol: as §1, §2, §3, §4, §5

MCF-7 [1] = experiment: NCI60 cell line screen (SRB); conditions: MCF-7, Breast Cancer, 48 h
Protocol: as §1, §2, §3, §4, §5

HS 578T = experiment: NCI60 cell line screen (SRB); conditions: Breast Cancer, 48 h
Protocol: as §1, §2, §3, §4, §5

MALME-3M = experiment: NCI60 cell line screen (SRB); conditions: Melanoma, 48 h
Protocol: as §1, §2, §3, §4, §5

SNB-75 = experiment: NCI60 cell line screen (SRB); conditions: SNB-75, CNS Cancer, 48 h
Protocol: as §1, §2, §3, §4, §5

OVCAR3 = experiment: NCI60 cell line screen (SRB); conditions: OVCAR3, Ovarian Cancer, 48 h
Protocol: as §1, §2, §3, §4, §5

EKVX = experiment: NCI60 cell line screen (SRB); conditions: Non-Small Cell Lung Cancer, 48 h
Protocol: as §1, §2, §3, §4, §5

SF-268 = experiment: NCI60 cell line screen (SRB); conditions: SF-268, CNS Cancer, 48 h
Protocol: as §1, §2, §3, §4, §5

786-0 = experiment: NCI60 cell line screen (SRB); conditions: 786-0, Renal Cancer, 48 h
Protocol: as §1, §2, §3, §4, §5

NCI-H226 = experiment: NCI60 cell line screen (SRB); conditions: NCI-H226, Non-Small Cell Lung Cancer, 48 h
Protocol: as §1, §2, §3, §4, §5

A549/ATCC = experiment: NCI60 cell line screen (SRB); conditions: Non-Small Cell Lung Cancer, 48 h
Protocol: as §1, §2, §3, §4, §5

SK-MEL-5 = experiment: NCI60 cell line screen (SRB); conditions: SK-MEL-5, Melanoma, 48 h
Protocol: as §1, §2, §3, §4, §5

LOX IMVI = experiment: NCI60 cell line screen (SRB); conditions: Melanoma, 48 h
Protocol: as §1, §2, §3, §4, §5

UACC-62 = experiment: NCI60 cell line screen (SRB); conditions: UACC-62, Melanoma, 48 h
Protocol: as §1, §2, §3, §4, §5

SN12C = experiment: NCI60 cell line screen (SRB); conditions: Renal Cancer, 48 h
Protocol: as §1, §2, §3, §4, §5

MCF-7 [2] = experiment: XTT cytotoxicity assay; conditions: XTT; average ± standard deviation of 2-4 independent assays; read-out: Inhibition of Cancer Cell Proliferation (IC50) MCF-7
Protocol: (§6) In initial experiments, compounds 4a-g and 7c-g were evaluated for their cytotoxicity against human breast cancer cell lines MCF-7 and MDA-MB-468 and human colon cancer cell line HCT-116. The makaluvamine compounds provided in Table 2 were also evaluated for their cytotoxicity against human breast cancer cell lines MCF-7. Compound nos. 8 and 27-33 were not evaluated in this experiment. Cells were obtained from ATCC (Manassas, Va.). For each derivative the IC50 value was determined using data generated from 2-4 independent tetrazolium-based (XTT) cytotoxicity assays (R & D Systems Inc., Minneapolis, Minn.) according to the manufacturer's instructions. […] MCF-7, MDA-MD-468 and HCT-116 cells were grown at 37 degrees C. in a humidified atmosphere with complete growth media supplemented with fetal bovine serum. Growth media was changed 2-3 times per week as required.

HCT-116 = experiment: XTT cytotoxicity assay; conditions: average ± standard deviation of 2-4 independent assays, read-out: Inhibition of Cancer Cell Proliferation (IC50) HCT-116
Protocol: as §6

MDA-MB-468 = experiment: XTT cytotoxicity assay; conditions: average ± standard deviation of 2-4 independent assays, read-out: Inhibition of Cancer Cell Proliferation (IC50) MDA-MB-468
Protocol: as §6

Row | SMILES | GI50 (ACHN; Homo sapiens) | GI50 (SK-MEL-28; Homo sapiens) | GI50 (MCF-7 [1]; Homo sapiens, MCF7) | GI50 (HS 578T; Homo sapiens) | GI50 (MALME-3M; Homo sapiens) | GI50 (SNB-75; Homo sapiens) | GI50 (OVCAR3; Homo sapiens, OVCAR-3) | GI50 (EKVX; Homo sapiens) | GI50 (SF-268; Homo sapiens) | GI50 (786-0; Homo sapiens) | GI50 (NCI-H226; Homo sapiens) | GI50 (A549/ATCC; Homo sapiens) | GI50 (SK-MEL-5; Homo sapiens) | GI50 (LOX IMVI; Homo sapiens) | GI50 (UACC-62; Homo sapiens) | GI50 (SN12C; Homo sapiens) | IC50 (MCF-7 [2]) | IC50 (HCT-116) | IC50 (MDA-MB-468) | GI50 (ACHN) | also measured
1 | COc1ccc(CCNC2=CC3=NCCc4c[nH]c(c43)C2=O)cc1OC.O=C(O)C(F)(F)F [Compound 20] | 4210 nM | 10100 nM | 2610 nM | 5040 nM | 249 nM | 5220 nM | 1610 nM | 3080 nM | < 10 nM | 5430 nM | 1060 nM | 2720 nM | 1330 nM | 2340 nM | 2170 nM | 3070 nM |  |  |  |  | 
2 | O=C1C(NCCc2ccccc2)=CC2=NCCc3c[nH]c1c32 [Compound 4d] |  |  |  |  |  |  |  |  |  |  |  |  |  |  |  |  | 1700 ± 500 nM | 3900 ± 1200 nM | 300 nM |  | 
3 | O=C(O)C(F)(F)F.O=C1C(NCCc2ccc3c(c2)OCO3)=CC2=NCCc3c[nH]c1c32 [Compound 6] | 3250 nM | 4910 nM | 1210 nM | 2860 nM | 343 nM | 3490 nM | 2020 nM | 1960 nM | 3660 nM | 3980 nM | 4380 nM |  | 965 nM | 1680 nM | 2320 nM | 2690 nM |  |  |  |  | 
4 | CNC1=CC2=NCCc3c[nH]c(c32)C1=O [Compound 4a] |  |  |  |  |  |  |  |  |  |  |  |  |  |  |  |  | 1300 ± 100 nM | 2500 ± 1300 nM | 400 ± 50 nM | 13100 nM | GI50 (SK-MEL-28): 6620 nM; GI50 (MCF-7 [1]): 1520 nM; GI50 (HS 578T): 10200 nM; GI50 (MALME-3M): 1210 nM; GI50 (SNB-75): 1380 nM; GI50 (OVCAR3): 6300 nM; GI50 (EKVX): 2200 nM; GI50 (SF-268): 2090 nM; GI50 (786-0): 10500 nM; GI50 (NCI-H226): 11100 nM; GI50 (A549/ATCC): 2780 nM; GI50 (SK-MEL-5): 1450 nM; GI50 (LOX IMVI): 3430 nM; GI50 (UACC-62): 2490 nM; GI50 (SN12C): 3060 nM
5 | O=C(O)C(F)(F)F.O=C1C(NCc2ccc(F)cc2)=CC2=NCCc3c[nH]c1c32 [Compound 28] | 2040 nM | 5780 nM | 160 nM | 44000 nM | 208 nM | 5200 nM | 2230 nM | 453 nM | 1660 nM | 3450 nM | 2340 nM | 1440 nM | 325 nM | 1570 nM | 1560 nM | 1950 nM |  |  |  |  | 
6 | O=C1C(NCc2ccccc2)=CC2=NCCc3c[nH]c1c32 [Compound 4c] |  |  |  |  |  |  |  |  |  |  |  |  |  |  |  |  | 1000 nM | 1300 ± 200 nM | 300 nM | 2800 nM | GI50 (SK-MEL-28): 7420 nM; GI50 (MCF-7 [1]): 61 nM; GI50 (HS 578T): 5200 nM; GI50 (MALME-3M): 300 nM; GI50 (SNB-75): 1650 nM; GI50 (OVCAR3): 2580 nM; GI50 (EKVX): 271 nM; GI50 (SF-268): 2830 nM; GI50 (786-0): 3220 nM; GI50 (NCI-H226): 5450 nM; GI50 (A549/ATCC): 2140 nM; GI50 (SK-MEL-5): 462 nM; GI50 (LOX IMVI): 1810 nM; GI50 (UACC-62): 1820 nM; GI50 (SN12C): 1890 nM
